{"source": "the supplement of paper PMC13380429", "conditions_in_all_cases": "72 h", "key": {"[1]": {"tested_on": "Caco-2", "assay": "cell viability relative to DMSO; higher = less toxic"}, "[2]": {"tested_on": "Calu-3", "assay": "cell viability relative to DMSO; higher = less toxic"}, "[3]": {"tested_on": "HepG2", "assay": "cell viability relative to DMSO; higher = less toxic"}, "[4]": {"tested_on": "U2OS", "assay": "cell viability relative to DMSO; higher = less toxic"}, "[5]": {"tested_on": "Vero E6", "assay": "cell viability relative to DMSO; higher = less toxic"}, "[6]": {"tested_on": "Caco-2", "assay": "relative viability EC50 (midpoint between 100% and the lowest measured viability); higher = less toxic"}, "[7]": {"tested_on": "Calu-3", "assay": "relative viability EC50 (midpoint between 100% and the lowest measured viability); higher = less toxic"}, "[8]": {"tested_on": "HepG2", "assay": "relative viability EC50 (midpoint between 100% and the lowest measured viability); higher = less toxic"}, "[9]": {"tested_on": "U2OS", "assay": "relative viability EC50 (midpoint between 100% and the lowest measured viability); higher = less toxic"}, "[10]": {"tested_on": "Vero E6", "assay": "relative viability EC50 (midpoint between 100% and the lowest measured viability); higher = less toxic"}, "[11]": {"tested_on": "Caco-2", "assay": "drug sensitivity score (DSS) for viability; higher = more toxic; extreme values may be limits of the assay"}, "[12]": {"tested_on": "Calu-3", "assay": "drug sensitivity score (DSS) for viability; higher = more toxic; extreme values may be limits of the assay"}, "[13]": {"tested_on": "HepG2", "assay": "drug sensitivity score (DSS) for viability; higher = more toxic; extreme values may be limits of the assay"}, "[14]": {"tested_on": "U2OS", "assay": "drug sensitivity score (DSS) for viability; higher = more toxic; extreme values may be limits of the assay"}, "[15]": {"tested_on": "Vero E6", "assay": "drug sensitivity score (DSS) for viability; higher = more toxic; extreme values may be limits of the assay"}}}
{"smiles": "C[C@](N)(Cc1ccc(O)c(O)c1)C(=O)O", "note": "[methyldopa]", "values": [{"measurement": "cell viability", "setting": "[1]; 1 nM", "result": 97.5, "unit": "%"}, {"measurement": "cell viability", "setting": "[1]; 10 nM", "result": 103, "unit": "%"}, {"measurement": "cell viability", "setting": "[1]; 100 nM", "result": 89.8, "unit": "%"}, {"measurement": "cell viability", "setting": "[1]; 1000 nM", "result": 106, "unit": "%"}, {"measurement": "cell viability", "setting": "[1]; 10000 nM", "result": 99.9, "unit": "%"}, {"measurement": "cell viability", "setting": "[2]; 1 nM", "result": 96.9, "unit": "%"}, {"measurement": "cell viability", "setting": "[2]; 10 nM", "result": 102, "unit": "%"}, {"measurement": "cell viability", "setting": "[2]; 100 nM", "result": 101, "unit": "%"}, {"measurement": "cell viability", "setting": "[2]; 1000 nM", "result": 98.9, "unit": "%"}, {"measurement": "cell viability", "setting": "[2]; 10000 nM", "result": 93.6, "unit": "%"}, {"measurement": "cell viability", "setting": "[3]; 1 nM", "result": 94.1, "unit": "%"}, {"measurement": "cell viability", "setting": "[3]; 10 nM", "result": 97.4, "unit": "%"}, {"measurement": "cell viability", "setting": "[3]; 100 nM", "result": 104, "unit": "%"}, {"measurement": "cell viability", "setting": "[3]; 1000 nM", "result": 92.3, "unit": "%"}, {"measurement": "cell viability", "setting": "[3]; 10000 nM", "result": 108, "unit": "%"}, {"measurement": "cell viability", "setting": "[4]; 1 nM", "result": 101, "unit": "%"}, {"measurement": "cell viability", "setting": "[4]; 10 nM", "result": 103, "unit": "%"}, {"measurement": "cell viability", "setting": "[4]; 100 nM", "result": 96.7, "unit": "%"}, {"measurement": "cell viability", "setting": "[4]; 1000 nM", "result": 97.8, "unit": "%"}, {"measurement": "cell viability", "setting": "[4]; 10000 nM", "result": 93.1, "unit": "%"}, {"measurement": "cell viability", "setting": "[5]; 1 nM", "result": 99.2, "unit": "%"}, {"measurement": "cell viability", "setting": "[5]; 10 nM", "result": 102, "unit": "%"}, {"measurement": "cell viability", "setting": "[5]; 100 nM", "result": 94.5, "unit": "%"}, {"measurement": "cell viability", "setting": "[5]; 1000 nM", "result": 97.9, "unit": "%"}, {"measurement": "cell viability", "setting": "[5]; 10000 nM", "result": 106, "unit": "%"}, {"measurement": "relative viability EC50", "setting": "[6]", "result": "> 10", "unit": "µM"}, {"measurement": "relative viability EC50", "setting": "[7]", "result": "> 10", "unit": "µM"}, {"measurement": "relative viability EC50", "setting": "[8]", "result": "> 10", "unit": "µM"}, {"measurement": "relative viability EC50", "setting": "[9]", "result": "> 10", "unit": "µM"}, {"measurement": "relative viability EC50", "setting": "[10]", "result": "> 10", "unit": "µM"}, {"measurement": "drug sensitivity score", "setting": "[11]", "result": 0}, {"measurement": "drug sensitivity score", "setting": "[12]", "result": 0}, {"measurement": "drug sensitivity score", "setting": "[13]", "result": 0}, {"measurement": "drug sensitivity score", "setting": "[14]", "result": 0}, {"measurement": "drug sensitivity score", "setting": "[15]", "result": 0}]}
{"smiles": "CC1(C)S[C@@H]2[C@H](NC(=O)[C@H](NC(=O)N3CCN(S(C)(=O)=O)C3=O)c3ccccc3)C(=O)N2[C@H]1C(=O)O", "note": "[mezlocillin]", "values": [{"measurement": "cell viability", "setting": "[1]; 1 nM", "result": 100, "unit": "%"}, {"measurement": "cell viability", "setting": "[1]; 10 nM", "result": 102, "unit": "%"}, {"measurement": "cell viability", "setting": "[1]; 100 nM", "result": 87.8, "unit": "%"}, {"measurement": "cell viability", "setting": "[1]; 1000 nM", "result": 89.4, "unit": "%"}, {"measurement": "cell viability", "setting": "[1]; 10000 nM", "result": 96.3, "unit": "%"}, {"measurement": "cell viability", "setting": "[2]; 1 nM", "result": 93.8, "unit": "%"}, {"measurement": "cell viability", "setting": "[2]; 10 nM", "result": 88.9, "unit": "%"}, {"measurement": "cell viability", "setting": "[2]; 100 nM", "result": 93.1, "unit": "%"}, {"measurement": "cell viability", "setting": "[2]; 1000 nM", "result": 100, "unit": "%"}, {"measurement": "cell viability", "setting": "[2]; 10000 nM", "result": 94.1, "unit": "%"}, {"measurement": "cell viability", "setting": "[3]; 1 nM", "result": 99.6, "unit": "%"}, {"measurement": "cell viability", "setting": "[3]; 10 nM", "result": 94.2, "unit": "%"}, {"measurement": "cell viability", "setting": "[3]; 100 nM", "result": 91.1, "unit": "%"}, {"measurement": "cell viability", "setting": "[3]; 1000 nM", "result": 98.6, "unit": "%"}, {"measurement": "cell viability", "setting": "[3]; 10000 nM", "result": 104, "unit": "%"}, {"measurement": "cell viability", "setting": "[4]; 1 nM", "result": 96.4, "unit": "%"}, {"measurement": "cell viability", "setting": "[4]; 10 nM", "result": 97.9, "unit": "%"}, {"measurement": "cell viability", "setting": "[4]; 100 nM", "result": 92.7, "unit": "%"}, {"measurement": "cell viability", "setting": "[4]; 1000 nM", "result": 103, "unit": "%"}, {"measurement": "cell viability", "setting": "[4]; 10000 nM", "result": 94.8, "unit": "%"}, {"measurement": "cell viability", "setting": "[5]; 1 nM", "result": 99.6, "unit": "%"}, {"measurement": "cell viability", "setting": "[5]; 10 nM", "result": 107, "unit": "%"}, {"measurement": "cell viability", "setting": "[5]; 100 nM", "result": 99.5, "unit": "%"}, {"measurement": "cell viability", "setting": "[5]; 1000 nM", "result": 100, "unit": "%"}, {"measurement": "cell viability", "setting": "[5]; 10000 nM", "result": 100, "unit": "%"}, {"measurement": "relative viability EC50", "setting": "[6]", "result": "> 10", "unit": "µM"}, {"measurement": "relative viability EC50", "setting": "[7]", "result": "> 10", "unit": "µM"}, {"measurement": "relative viability EC50", "setting": "[8]", "result": "> 10", "unit": "µM"}, {"measurement": "relative viability EC50", "setting": "[9]", "result": "> 10", "unit": "µM"}, {"measurement": "relative viability EC50", "setting": "[10]", "result": "> 10", "unit": "µM"}, {"measurement": "drug sensitivity score", "setting": "[11]", "result": 1.1}, {"measurement": "drug sensitivity score", "setting": "[12]", "result": 0}, {"measurement": "drug sensitivity score", "setting": "[13]", "result": 0}, {"measurement": "drug sensitivity score", "setting": "[14]", "result": 0}, {"measurement": "drug sensitivity score", "setting": "[15]", "result": 0}]}
{"smiles": "O=c1c(O)c(-c2ccc(O)cc2O)oc2cc(O)cc(O)c12", "note": "[morin]", "values": [{"measurement": "cell viability", "setting": "[1]; 1 nM", "result": 102, "unit": "%"}, {"measurement": "cell viability", "setting": "[1]; 10 nM", "result": 96.5, "unit": "%"}, {"measurement": "cell viability", "setting": "[1]; 100 nM", "result": 96.6, "unit": "%"}, {"measurement": "cell viability", "setting": "[1]; 1000 nM", "result": 102, "unit": "%"}, {"measurement": "cell viability", "setting": "[1]; 10000 nM", "result": 88.6, "unit": "%"}, {"measurement": "cell viability", "setting": "[2]; 1 nM", "result": 113, "unit": "%"}, {"measurement": "cell viability", "setting": "[2]; 10 nM", "result": 99.5, "unit": "%"}, {"measurement": "cell viability", "setting": "[2]; 100 nM", "result": 96.3, "unit": "%"}, {"measurement": "cell viability", "setting": "[2]; 1000 nM", "result": 91.6, "unit": "%"}, {"measurement": "cell viability", "setting": "[2]; 10000 nM", "result": 102, "unit": "%"}, {"measurement": "cell viability", "setting": "[3]; 1 nM", "result": 87.2, "unit": "%"}, {"measurement": "cell viability", "setting": "[3]; 10 nM", "result": 103, "unit": "%"}, {"measurement": "cell viability", "setting": "[3]; 100 nM", "result": 98.9, "unit": "%"}, {"measurement": "cell viability", "setting": "[3]; 1000 nM", "result": 97.4, "unit": "%"}, {"measurement": "cell viability", "setting": "[3]; 10000 nM", "result": 98.9, "unit": "%"}, {"measurement": "cell viability", "setting": "[4]; 1 nM", "result": 101, "unit": "%"}, {"measurement": "cell viability", "setting": "[4]; 10 nM", "result": 93.7, "unit": "%"}, {"measurement": "cell viability", "setting": "[4]; 100 nM", "result": 104, "unit": "%"}, {"measurement": "cell viability", "setting": "[4]; 1000 nM", "result": 97.3, "unit": "%"}, {"measurement": "cell viability", "setting": "[4]; 10000 nM", "result": 102, "unit": "%"}, {"measurement": "cell viability", "setting": "[5]; 1 nM", "result": 94.9, "unit": "%"}, {"measurement": "cell viability", "setting": "[5]; 10 nM", "result": 95.8, "unit": "%"}, {"measurement": "cell viability", "setting": "[5]; 100 nM", "result": 99, "unit": "%"}, {"measurement": "cell viability", "setting": "[5]; 1000 nM", "result": 98.4, "unit": "%"}, {"measurement": "cell viability", "setting": "[5]; 10000 nM", "result": 95.9, "unit": "%"}, {"measurement": "relative viability EC50", "setting": "[6]", "result": "> 10", "unit": "µM"}, {"measurement": "relative viability EC50", "setting": "[7]", "result": "> 10", "unit": "µM"}, {"measurement": "relative viability EC50", "setting": "[8]", "result": "> 10", "unit": "µM"}, {"measurement": "relative viability EC50", "setting": "[9]", "result": "> 10", "unit": "µM"}, {"measurement": "relative viability EC50", "setting": "[10]", "result": "> 10", "unit": "µM"}, {"measurement": "drug sensitivity score", "setting": "[11]", "result": 0}, {"measurement": "drug sensitivity score", "setting": "[12]", "result": 0}, {"measurement": "drug sensitivity score", "setting": "[13]", "result": 0}, {"measurement": "drug sensitivity score", "setting": "[14]", "result": 0}, {"measurement": "drug sensitivity score", "setting": "[15]", "result": 0}]}
